# Like-named read-outs stand apart in the source and are kept apart here.
# How the values were obtained:
# Aβ1-42 = Aβ1-42 content in conditioned medium of primary cortico-hippocampal neuron cultures from Tg2576 mice (ELISA; primary and secondary dose-response screening); assay type: cell-based, mouse
# [1] = valsartan concentration in blood (serum) by MRM mass spectrometry; assay type: in vivo, mouse; conditions: chronically valsartan-treated mice (40 mg/kg)
# Source text: A series high throughput studies were initiated to assess and quantify antihypertensive drug levels and related metabolites in Tg 2576 and WT controls following in vivo treatments. […] Presently, using QSTAR (QqTOF) mass spectrometry, which delivers high sensitivity and resolution as well as unparalleled mass accuracy for determination of molecular weights of drugs and related metabolites at femtomole levels, the inventor is proceeding with studies aimed at detecting and eventually quantitating antihypertensive drugs and related metabolites in the brain or CSF. Thus, these technologies will accurate determination of the penetration of the blood brain barrier of candidate Aβ lowering antihypertensives in response to chronic treatments in vivo.
# β-secretase = β-secretase (Mus musculus, UniProt P56818); design: dose or concentration left out as unconfirmed; conditions: primary Tg2576 neuron cultures, 16 hours
# Sequence of β-secretase (P56818 46-501): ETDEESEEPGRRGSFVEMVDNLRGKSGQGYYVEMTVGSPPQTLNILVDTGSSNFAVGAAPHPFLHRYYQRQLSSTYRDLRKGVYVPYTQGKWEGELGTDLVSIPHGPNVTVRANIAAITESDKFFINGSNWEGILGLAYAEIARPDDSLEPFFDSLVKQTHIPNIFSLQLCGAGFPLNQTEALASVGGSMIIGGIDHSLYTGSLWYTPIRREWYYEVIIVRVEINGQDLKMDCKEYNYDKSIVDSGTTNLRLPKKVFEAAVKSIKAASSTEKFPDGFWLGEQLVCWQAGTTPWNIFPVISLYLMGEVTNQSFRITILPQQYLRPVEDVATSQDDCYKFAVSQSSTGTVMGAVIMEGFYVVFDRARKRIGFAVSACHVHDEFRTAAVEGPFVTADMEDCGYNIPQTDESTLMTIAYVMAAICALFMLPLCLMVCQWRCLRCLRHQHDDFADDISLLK
substance,measurement,setting,value
"N-(1-oxopentyl)-N-[[2-(1H-tetrazol-5-yl) [1,1-biphenyl]-4-yl]methyl]-L-valine [Valsartan]",EC50,"Aβ1-42; Table IV, dose-response 0.01-100 μM, read-out: EC50 (M): Ab-lowering activity Aβ1-42",1.79e-05 M
same,EC50,"Aβ1-42; conditioned medium of primary cortico-hippocampal neuron cultures from Tg2576 embryos, 24 hours after treatment, relative to vehicle (1% DMSO) control, read-out: EC50 (molar) Aβ1-42",1.79e-05 M
same,EC50,"Aβ1-42; secondary dose-response screening 0.01-100 μM, 24 hours, read-out: EC50 (molar) Aβ1-42",1.79e-05 M
same,steady state levels in the blood (serum),[1],successfully detected steady state levels
same,β-secretase activity,β-secretase,selectively inhibition of β-secretase activity

# From patent publication US20100029654A1, “CARDIOVASCULAR COMPOSITIONS AND USE OF THE SAME FOR THE TREATMENT OF ALZHEIMER'S DISEASE” (MOUNT SINAI SCHOOL OF MEDICINE, priority 2006, published 2010)
